The subject of data set [1] is T. congolense IL3000. Kind of data set: Alamar Blue (resazurin) assay, T. congolense IL3000. Particulars: against T. congolense. The format is cell-based, Trypanosoma congolense. An outline of the steps:
(§1)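 Sigmoid curve (variable slope) fitted to obtain EC50. At least 3 independent determinations on different days, averaged.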

The subject of data set [2] is T.b.b. B48. Kind of data set: Alamar Blue (resazurin) assay, T. b. brucei B48. The format is cell-based, Trypanosoma brucei brucei. Particulars: against T. b. brucei B48. An outline of the steps:
as §1

A further data set relates to L. mexicana SUPKO+TcoAT1. Kind of data set: microbe, parasite or virus in culture. The format is cell-based, Leishmania mexicana. An outline of the steps: as §1
The next data set relates to L. mexicana SUPKO+TvxNT3. Nature of the data set: microbe, parasite or virus in culture. Particulars: resazurin, promastigotes; read-out: SUPKO+TvxNT3 EC50. The format is cell-based, Leishmania mexicana. An outline of the steps:
as §1

The test system of a further data set is L. mexicana SUPKO. Kind of data set: microbe, parasite or virus in culture. The format is cell-based, Leishmania mexicana. An outline of the steps: as §1
In data set [3] the test system is T.b.b. B48. The arrangement: method as in Hulpia et al. [38]. The conditions noted are these: compound marked *; ref Hulpia et al. [38]; cited from earlier work.
The subject of data set [4] is T. vivax. Nature of the data set: T. vivax EC50 (from Mabille et al.). The format is cell-based, Trypanosoma vivax. Particulars: from Table 8 data.
In data set [5] the test system is T. congolense IL3000. The arrangement: method as in Hulpia et al. [38]. The conditions noted are these: values marked *; ref Hulpia et al. [38]; cited from earlier work.
Data set [6] deals with T. vivax. The arrangement: method as in Mabille et al. [69]. The conditions noted are these: added for comparison only; ref Mabille et al. [69]; cited from earlier work.
In data set [7] the target is T. congolense adenosine transporter. Kind of data set: [3H]-adenosine uptake and its inhibition in T. congolense IL3000 bloodstream forms. The format is cell-based, Trypanosoma congolense. The procedure, abridged: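 Bloodstream-form T. congolense IL3000 (1 × 10^7 cells) in HEPES/bicarbonate buffer pH 7.3 took up [3H]-adenosine over a set interval, with or without inhibitor, ending by ice-cold unlabeled substrate stop or centrifugation through oil. Pellet radioactivity gave IC50 by sigmoid fit; Ki followed by Cheng–Prusoff using adenosine Km.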

Data set [8] deals with human embryonic kidney (HEK) cells. Kind of data set: Resazurin toxicity assay on human embryonic kidney cells. The format is cell-based. The procedure, abridged: as §1
The test system of another data set is T. evansi. More on the design: method as in Hulpia et al. [38]. Particulars: compound marked *; ref Hulpia et al. [38]; cited from earlier work.
The next data set concerns T. b. brucei. The conditions noted are these: also CNS stage; oral and intraperitoneal administration; cited from earlier work.
For data set [9], the system named is T. congolense 6C3. Kind of data set: microbe, parasite or virus in culture. Particulars: resistance factor = EC50 (test strain)/EC50(control strain). The format is cell-based, Trypanosoma congolense. An outline of the steps: as §1
Another data set relates to L. mexicana Cas9. Kind of data set: Resazurin drug sensitivity assay, LmexCas9. The format is cell-based, Leishmania mexicana. Particulars: resazurin, promastigotes; read-out: LmexCas9 EC50. An outline of the steps:
as §1

Another data set relates to T. equiperdum. The arrangement: method as in Hulpia et al. [38]. Particulars: compound marked *; ref Hulpia et al. [38]; cited from earlier work.
Another data set deals with TcoAT1. The format is cell-based, Trypanosoma congolense. The procedure, abridged: (§2)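 Transporter genes were expressed in an L. mexicana line lacking NT1 and NT2 (SUPKO), and 1 × 10^7 cells in HEPES/bicarbonate buffer pH 7.3 took up radiolabeled permeant through an oil layer, with or without inhibitor. Uptake was stopped with ice-cold unlabeled substrate or by centrifugation, and pellets were counted. IC50 against radiolabeled adenosine was converted to Ki by Cheng–Prusoff using the permeant Km.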

Data set [10] concerns T. congolense 6C3. The arrangement: method as in Hulpia et al. [38]. Particulars: values marked *; ref Hulpia et al. [38]; cited from earlier work.
The target of a further data set is TvxNT3 (Trypanosoma vivax, UniProt F9WV62). Nature of the data set: cell-based. The format is cell-based. An outline of the steps: as §2
The test system of another data set is T. brucei cells. The arrangement: method as in PMID 30475806. Particulars: T. brucei cells treated with the drug; cited from earlier work.

Chain of TvxNT3 (F9WV62 entry or part of it): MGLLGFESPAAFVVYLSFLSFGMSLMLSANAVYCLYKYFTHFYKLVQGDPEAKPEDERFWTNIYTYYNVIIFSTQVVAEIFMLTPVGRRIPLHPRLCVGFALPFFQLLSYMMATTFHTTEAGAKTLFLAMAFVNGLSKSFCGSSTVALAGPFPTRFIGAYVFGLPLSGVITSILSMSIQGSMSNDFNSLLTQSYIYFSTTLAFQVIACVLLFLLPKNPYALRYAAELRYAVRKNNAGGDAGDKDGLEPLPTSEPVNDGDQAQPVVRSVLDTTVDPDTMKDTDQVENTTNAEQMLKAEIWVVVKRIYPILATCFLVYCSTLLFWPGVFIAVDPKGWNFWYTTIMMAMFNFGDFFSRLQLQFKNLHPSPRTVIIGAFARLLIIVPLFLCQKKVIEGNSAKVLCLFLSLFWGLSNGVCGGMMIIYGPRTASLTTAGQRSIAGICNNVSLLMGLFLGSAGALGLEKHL

In the case of `Nc1ncnc2c1ccn2C1OC(CO)CC1O` (stereo not drawn) [FH7429_d, 3′-deoxytubercidin], the figures for the “fold more potent than tubercidin” value in the data set with T. congolense IL3000 [1] and in the data set with T.b.b. B48 [2] were 150 fold and 17.2 fold, respectively. Further, in the data set on L. mexicana SUPKO+TcoAT1 (Resistance Factor relative to SUPKO), the “SUPKO+TcoAT1 RF (SUPKO)” value is reported as over 1.53. The EC50 was 65.3 ± 7.6 µM in the data set with L. mexicana SUPKO+TcoAT1 (resazurin, promastigotes, read-out: SUPKO+TcoAT1 EC50); over 100 µM with L. mexicana SUPKO+TvxNT3; over 100 µM in the data set on L. mexicana SUPKO (resazurin, promastigotes, read-out: SUPKO EC50); 0.25 ± 0.02 µM in the data set on T.b.b. B48 [3]; 0.021 ± 0.001 µM in the data set with T. congolense IL3000 [5]; 3.48 ± 0.09 µM in the data set with T. vivax [6]. For the same molecule, the EC50 is over 200 µM in data set [8] (resazurin, 96 well plates, read-out: HEK EC50); 0.017 ± 0.002 µM in the data set on T. evansi; 15.1 ± 1.7 µM with L. mexicana Cas9; 0.0026 ± 0.0006 µM in the data set with T. equiperdum; 0.019 ± 0.002 µM in the data set on T. congolense 6C3 [10]. The “SUPKO RF (Cas9)” value in the data set on L. mexicana SUPKO (Resistance Factor = EC50(SUPKO)/EC50(Cas9)) is over 6.63. Also, in the data set on T. vivax [4], the “fold higher EC50 against T. vivax compared to T. congolense” value is given as 10–165 fold. For the same molecule, the Ki came to 319 ± 93 µM in data set [7] (0.05 µM [3H]-adenosine, 30 s, IC50 converted to Ki, read-out: Ki on the transport of [3H]-adenosine); 810 ± 60 µM on TcoAT1 (0.05 µM [3H]-adenosine, 10 s, IC50 converted to Ki, read-out: Ki on the transport of [3H]-adenosine); 388 ± 13 µM at TvxNT3 (50 nM [3H]-adenosine, 90 s, IC50 converted to Ki, read-out: Ki on the transport of [3H]-adenosine). Also, the “ΔG0, Gibbs free energy of interaction” value in data set [7] (calculated from Km or Ki) was -4.76 kcal/mol. For the same molecule, the “SI T. equiperdum” value in data set [8] (selectivity index = EC50 (HEK cells)/EC50 (T. equiperdum)) was >76,000. Further, in data set [8] (selectivity index = EC50 (HEK cells)/EC50 (T. evansi)), the “SI T. evansi” value is >11,800. Also, the “outcome in T. b. brucei mouse model” value in the data set with T. b. brucei was “curative”. In the data set with T. congolense 6C3 [9], the “T. congolense 6C3 RF” value is reported as 0.91. Besides, the ΔG0 with TcoAT1 (Gibbs free energy of binding, from Km or Ki) is -4.3 kcal/mol; at TvxNT3 (Gibbs free energy of interaction, from Km or Ki), -4.66 kcal/mol.
Turning to `Nc1nc(N)nc(Nc2ccc([As]3SCC(CO)S3)cc2)n1` (stereo not drawn) [melarsoprol], the “cells bearing conjoined nuclei and double kinetoplasts” value with T. brucei cells is over 10%.
